Patent publication US20050196806A1, “Prostate specific antigen oligoepitope peptide” (The Government of the USA, as represented by the Secretary, …, priority 1996, published 2005)
Converted amounts (≈) assume the structure as drawn. Marks after values point to notes of the source that are not given here. Residues, ends and D or L forms follow the SMILES beside them.

Tests used:
[1] = tested on: CIR-A2 cells; assay: Effects of protease inhibitors on CTL mediated killing of CIRA2 cells pulsed with PSA-OP; format: cell-based, human; details: Donor-1 PSA-OP CTL, 25:1 E:T ratio; for % of Specific Release (+/−SD), CIRA2 cells, No peptide: Medium 7.7 (1.9)
Procedure: Various target cells were labeled with 50 μCi of ^111In-oxyquinoline (Medi-Physics Inc., Arlington, Ill.) for 15 minutes at room temperature. Target cells (0.2×10^4) in 100 μl of complete medium (see below) were added to each of 96 wells in flat bottom assay plates (Corning Costar Corp.). The labeled targets were incubated with peptides at a final concentration of 50 μg/ml for 60 min at 37° C. in 5% CO2 before adding effector cells. Effector cells were suspended in 100 μl of complete medium supplemented with 5% pooled human AB serum and added to target cells. The plates were incubated at 37° C. for 16 hours. Supernatants were harvested for γ-counting using harvester frames (Skatron, Inc. Sterling, Va.). Determinations were carried out in triplicate and standard deviations were calculated. All experiments were carried out three times. Specific Lysis was calculated using the following formula: % of Specific Release=observed release(cpm)−spontaneous release(cpm) total releae(cpm)−spontaneous release(cpm)×100
[…] Peptide pulsed target cells were incubated with protease inhibitors. Protease inhibitors used were E64, carboxypeptidase inhibitor, plummer inhibitor, and captopril (angiotension converting enzyme inhibitor) at various concentrations (10^−5, 10^−6, 10^−7 M). CTL activity was determined by the CTL assay described above.

[2] = target: T1, HLA class-I A2001 molecule (Homo sapiens, UniProt P04439, D140Y/D185E/D98H/E176V/E277Q/G131W/G231S/I119V/I121R/I166T/I218V/L300P/L318F/N151K/N90K/P208A/P217A/Q86G/Q94H/R138H/R169H/T345S); assay: Peptide binding to HLA-A2: upregulation on T2 cells by flow cytometry (Example IV); details: T2 cells incubated 24 h with peptide 50 μg/ml/10^6 cells; 100 cut off value for positivity; None = 16.88
T1 construct: endogenous in cells; host or cells: T2 cells (174CEM.T2, transport deletion mutant)
Procedure: 1×10^6 cells in serum-free IMDM were incubated with peptides at the concentration of 50 μg/ml in 24-well culture plates at 37° C. in 5% CO2. Flow cytometry for peptide binding was performed using T2 cells and single color analysis. After cells were washed three times in DPBS as above, they were incubated for 1 hr with HLA-A2 specific MAb A2,69 (One lambda, Inc., Canoga Park, Calif.), using 10 μl of a 1× working dilution per 10^6 cells. MOPC-21 (Cappel/Organon Teknika Corp.) was used as isotype control. The cells were then washed three times and incubated with 1:100 dilution of fluorescein (FITC) labeled anti-mouse IgG (Kirkegaard & Perry, Gaithersburg, Md.). Analysis was carried out using the FACScan as described above. Cells were maintained on ice during all cell preparation and staining unless otherwise stated.

[3] = target: T2, human HLA A2 molecules (Homo sapiens, UniProt P04439, D140Y/D185E/D98H/E176V/E277Q/G131W/G231S/I119V/I121R/I166T/I218V/L300P/L318F/N151K/N90K/P208A/P217A/Q86G/Q94H/R138H/R169H/T345S); assay: T2 cell binding assay (PSA peptide binding assay, Example II); details: peptides at 50 μg/ml, None = 127.25
T2 construct: endogenous in cells; host or cells: T2 cells (174CEM.T2)
Excerpt: The amino acid sequence of human PSA was scanned using a predictive algorithm that combines a search for anchor residues with numerical assignments to all residues at all positions. The T2 cell binding assay was then used to determine which peptides bound human HLA A2 molecules. […] Table 7 gives the amino acid sequence of these peptides and compares them to corresponding sequences of HGK and PKA.

[4] = Solubility of synthesized peptide; format: physicochemical; details: in 1% DMSO
Procedure: PSA-OP was synthesized on an Applied Biosystems Model 432A peptide synthesizer. It operates on a 25 μmole scale and employs f-moc chemistry and feedback monitoring to control the coupling of each successive amino acid to the growing chain. The completed peptide is cleaved off the synthesis resin with -trifluoroacetic acid and thioanisole/ethanedithiol as scavengers. Acid salts are extracted with tert-butyl methyl ether and the peptide is lyophilized from water to give approximately 64 mg powder. The powder is soluble at 2 mg/ml in 1% DMSO and sterile-filtered aliquots show a single sharp peak on C18 reverse phase high performance liquid chromatography.

[5] = tested on: PBMC from normal healthy donors expressing the HLA A2 class 1 allele; assay: Establishment of human T cell lines by pulsing PBMC with peptide and IL-2; format: cell-based; details: donors with T cell line / donors tested; PBMC pulsed with peptide and IL-2
Excerpt: Cytotoxic T-cells specific for PSA can be established from peripheral blood mononuclear cells (PBMC) obtained from a host immunized as discussed above. For example, PBMC can be separated by using Lymphocyte Separation Medium gradient (Organon Teknika, Durham, N.C., USA) as previously described [Boyum et al, Scand J. Clin Lab Invest 21:77-80 (1968)]. Washed PBMC are resuspended in a complete medium, for example, RPMI 1640 (GIBCO) supplemented with 10% pool human AB serum (Pel-Freeze Clinical System, Brown Dear, Wisc., USA), 2 mM glutamine, 100 U/ml penicillin and 100 μg/ml of streptomycin (GIBCO). PBMC at a concentration of about 2×10^5 cells in complete medium in a volume of, for example 100 μl are added into each well of a 96-well flat-bottom assay plate (Costar, Cambridge, Mass., USA). The antigen or peptides are added into the cultures in a final concentration of about 50 μg/ml and incubated at 37° C. in a humidified atmosphere containing 5% CO2 for 5 days. After removal of peptide containing media, the cultures are provided with fresh human IL-2 (10 U/ml) after 5 days and replenished with IL-2 containing medium every 3 days. Primary cultures are restimulated with the same peptide (50 μg/ml) on day 16. 5×10^5 irradiated (4,000 rad) autologous PBMC are added in a volume of about 50 μl complete medium as antigen-presenting cells (APC). […]

[6] = tested on: T2 cells; assay: Cytotoxic assay of PSA peptide specific T cells against T2 cells; format: cell-based, human; details: 24 hour assay, E:T ratio 25:1
[7] = tested on: LNCAP PSA expressing human prostate cancer cell line; assay: Cytotoxic assay of PSA peptide specific T cells against LNCAP (Example III); format: cell-based; details: 24 hour assay, E:T ratio 25:1
Excerpt: (§1) Four of the T cell lines derived from three different individuals were then assays for their ability to lyse human cells (Table 9). […] No lysis was seen using the PSA negative human colon cancer cell line COLO-205. While 80% lysis was seen using the LNCAP PSA expressing human prostate cancer cell line. When employing the NK target K562, which measures non-specific lysis due to NK cell activity, only 23% lysis was obtained. Similar results were seen employing a different T cell line obtained from the same patient which was derived from pulsing with PSA peptide 154-163. Two additional T cell lines which were derived from peptide 154-163 were also analyzed. One was from a normal donor (T-1538) and one was from a prostate cancer patient (T-PC2; T Donor C).

[8] = tested on: NK target K562; assay: Cytotoxic assay of PSA peptide specific T cells against K562; format: cell-based, human; details: 24 hour assay, E:T ratio 25:1
Excerpt: as §1

[9] = tested on: PSA negative human colon cancer cell line COLO-205; assay: Cytotoxic assay of PSA peptide specific T cells against COLO-205; format: cell-based; details: 24 hour assay, E:T ratio 25:1
Excerpt: as §1

[10] = tested on: PBLs isolated from male HLA-A2001+ donors; assay: Limiting dilution analysis of CTL precursor frequency; format: cell-based, human; details: for Number of precursors (precursor frequency): calculated by X^2 minimization; for % of negative microcolonies, 10,000: two cycles of stimulation with the peptide, targets CIRA2 pulsed 3 h, cold K562
Procedure: Limiting dilution assays were used for the determination of precursor frequencies to PSA-1, PSA-3 and PSA-OP. Various number of PBMCs were seeded in 96-well flat bottom plates (Coming Costar) with 1×10^4 autologous PBMC irradiated with 4,000 rads and incubated with 50 μg/ml of PSA peptide. Cells were cultured in complete medium as described previously. At least 48 cultures were set up for each dilution. Cultures were incubated for 5 days at 37° C. in a humidified atmosphere containing 5% CO2 and then provided with fresh medium containing human IL-2 for 11 days, with IL-2-containing medium being replenished every 72 hr as shown below for CTLs generation. After two cycles of stimulation specific cytotoxic activity was tested for each single well, against CIR-A2 target cells with or without incubation with peptide. Cytotoxic assays were similar to the method described above. The unlabelled K562 cells were added to the microwells containing responder cells. After 1 hr incubation at 37° C. target cells were added into each well and incubated for 6 hrs at 37° C. Precursor frequencies were calculated by X^2 minimization.

[11] = T-Donor C T-cell line (prostate cancer patient)

NC(N)=NCCSCC(CS)C(=O)O (centres unmarked) [Plummer's]
% of Specific Release (+/−SD), CIRA2 cells, No peptide ([1]; inhibitor 10^−5 M): 10.7 (2.0) %

PSA [42-51]: negative control peptide, unable to bind HLA class I-A2 [reference compound]
T2 binding: relative fluorescence (mean intensity) with anti-HLA-A2 mAb [2]: 51.44

CC(C)C[C@H](NC(=O)[C@H]1O[C@@H]1C(=O)O)C(=O)NCCCCN=C(N)N [E 64]
% of Specific Release (+/−SD), CIRA2 cells pulsed with PSA-OP peptide [50 μg/ml] ([1]; inhibitor 10^−6 M): 13.7 (0.6) % | % of Specific Release (+/−SD), CIRA2 cells, No peptide ([1]; inhibitor 10^−6 M): 11.9 (1.7) %

C[C@H](CS)C(=O)N1CCC[C@H]1C(=O)O [Captopril, captopril]
% of Specific Release (+/−SD), CIRA2 cells pulsed with PSA-OP peptide [50 μg/ml] ([1]; inhibitor 10^−6 M): 11.0 (2.6) % | % of Specific Release (+/−SD), CIRA2 cells, No peptide ([1]; inhibitor 10^−6 M): 15.8 (2.1) %

KLQCVDLHV [PSA 146-154, ID No. 9]
MAb A2, 69: Mean channel fluorescent intensity [3]: 223.97 | MAb A2, 69: Mean channel fluorescent intensity ([3]; listed as 146-154): positive

CC[C@H](C)[C@H](NC(=O)[C@@H](NC(=O)[C@H](Cc1c[nH]cn1)NC(=O)[C@H](CC(C)C)NC(=O)[C@H](CC(=O)O)NC(=O)[C@@H](NC(=O)[C@H](CS)NC(=O)[C@H](CCC(N)=O)NC(=O)[C@H](CC(C)C)NC(=O)[C@H](CCCCN)NC(=O)[C@H](CCCCN)NC(=O)[C@@H]1CCCN1C(=O)[C@@H](NC(=O)[C@H](CC(C)C)NC(=O)[C@@H](N)Cc1ccccc1)[C@@H](C)O)C(C)C)C(C)C)C(=O)N[C@@H](CO)C(=O)N[C@@H](CC(N)=O)C(=O)N[C@@H](CC(=O)O)C(=O)N[C@H](C(=O)N[C@@H](CS)C(=O)N[C@@H](C)C(=O)N[C@@H](CCC(N)=O)C(=O)N[C@H](C(=O)N[C@@H](Cc1c[nH]cn1)C(=O)N1CCC[C@H]1C(=O)N[C@@H](CCC(N)=O)C(=O)N[C@@H](CCCCN)C(=O)N[C@H](C(=O)N[C@H](C(=O)N[C@@H](CCCCN)C(=O)O)[C@@H](C)O)C(C)C)C(C)C)C(C)C [PSA-OP] (H-FLTPKKLQCVDLHVISNDVCAQVHPQKVTK-OH; N-terminus and C-terminus assumed)
solubility [4]: 2000 µg/mL (≈ 590 µM)

VISNDVCAQV [PSA-3, ID No. 2]
MAb A2, 69: Mean channel fluorescent intensity ([3]; listed as 154-163): positive | MAb A2, 69: Mean channel fluorescent intensity ([3]; listed as PSA 154-163): 182.30 | T2 binding: relative fluorescence (mean intensity) with anti-HLA-A2 mAb [2]: 123.71 | T cell lines established from normal donors [5]: 6/6 | % specific release (lysis), T2 ([6]; T-Donor A T-cell line derived with the peptide, 111In release): 16% | % specific release (lysis), T2 + peptide ([6]; T-Donor A T-cell line): 35^b % | % specific release (lysis), T2 ([6]; T-Donor B T-cell line): 10% | % specific release (lysis), T2 + peptide ([6]; T-Donor B T-cell line): 40^b % | % specific release (lysis), T2 [6, 11]: 15% | % specific release (lysis), T2 + peptide [6, 11]: 35^b % | % specific release (lysis), LNCAP ([7]; T-Donor A T-cell line): 60^b % | % specific release (lysis), LNCAP ([7]; T-Donor B T-cell line): 29^b % | % specific release (lysis), LNCAP [7, 11]: 35^b % | % specific release (lysis), K562 ([8]; T-Donor A T-cell line): 22% | % specific release (lysis), K562 ([8]; T-Donor B T-cell line): 3% | % specific release (lysis), K562 [8, 11]: 2% | % specific release (lysis), COLO-205 ([9]; T-Donor A T-cell line): 10% | % specific release (lysis), COLO-205 ([9]; T-Donor B T-cell line): 10% | % specific release (lysis), COLO-205 [9, 11]: 8% | % of negative microcolonies, 500 ([10]; T/PSA-OP 2 donor): 100.0% | % of negative microcolonies, 1,000 ([10]; T/PSA-OP 2 donor): 100.0% | % of negative microcolonies, 5,000 ([10]; T/PSA-OP 2 donor): 97.8% | Number of precursors (precursor frequency) ([10]; T/PSA-OP 2 donor): 1/244200 | % of negative microcolonies, 10,000 ([10]; T/PSA-OP 2 donor): 95.8% | % of negative microcolonies, 500 ([10]; T/PSA-OP 3 donor): 97.6% | % of negative microcolonies, 1,000 ([10]; T/PSA-OP 3 donor): 95.8% | % of negative microcolonies, 5,000 ([10]; T/PSA-OP 3 donor): 93.7% | Number of precursors (precursor frequency) ([10]; T/PSA-OP 3 donor): 1/59279 | % of negative microcolonies, 10,000 ([10]; T/PSA-OP 3 donor): 89.6%
